The values below come from ChEMBL document CHEMBL1131083, “Tipranavir (PNU-140690): a potent, orally bioavailable nonpeptidic HIV protease inhibitor of the 5,6-dihydro-4-hydroxy-2-pyrone sulfonamide class” (J Med Chem, 1998).

Where only a bound is given, the exact number is not on record here.

Assay [1] addresses Human immunodeficiency virus type 1 protease (Human immunodeficiency virus 1, UniProt Q72874). The assay can be described thus: Inhibitory activity against HIV-1 protease in tandem assay.
The target in assay [2] is Human immunodeficiency virus type 1 protease (Human immunodeficiency virus 1) (UniProt Q72874). Briefly: Inhibition of HIV-1 protease in a cell culture assay using HIV-1 IIIB infected H9 cells. It is filed as functional, cell-based.
Assay [3] in a line: Inhibition of HIV-1 protease in a cell culture assay using HIV-1 IIIB infected H9 cells.
Assay [4] relates to H9. The assay can be described thus: Inhibitory activity against HIV-1 Protease in a cell culture assay using HIV-1 IIIB infected H9 cells at 3 uM. Format: functional. The conditions noted are these: Homo sapiens.
In assay [5] the test system is H9. The assay can be described thus: Inhibitory activity against HIV-1 Protease in a cell culture assay using HIV-1 IIIB infected H9 cells at 1 uM. Format: functional. The conditions noted are these: Homo sapiens.
For assay [6], the target named is Human immunodeficiency virus type 1 protease (Human immunodeficiency virus 1) (UniProt Q72874). Briefly: Inhibitory activity against HIV-1 Protease in tandem assay. The conditions noted are these: concentration not given here.

In turn, `CCCC1(CCc2ccccc2)CC(=O)C(C(c2cccc(NS(=O)(=O)c3ccc(C(F)(F)F)cn3)c2)C(C)(C)C)=C(O)O1` (stereo not given) returned a Ki in assay [1] of 4.3 nM. This compound also gave an IC90 in assay [2] of 990 nM.

`CCC[C@]1(CCc2ccccc2)CC(=O)C([C@H](CC)c2cccc(NS(=O)(=O)c3ccc(C#N)cn3)c2)=C(O)O1` registered a Ki in assay [1] of 0.04 nM. Further, in assay [2], the IC90 turned out to be 890 nM.

Turning to `CCCC1(CCc2ccccc2)CC(=O)C(C(CC)c2cccc(NS(=O)(=O)c3ccc(C#N)cn3)c2)=C(O)O1` (stereo not given), the affinity in assay [1] corresponds to a Ki of 0.1 nM. In assay [2], this compound registered an IC90 of 470 nM.

Consider `CCC[C@@]1(CCc2ccccc2)CC(O)=C([C@H](CC)c2cccc(NS(=O)(=O)c3ccc(C#N)cn3)c2)C(=O)O1`, for which the IC50 in assay [3] was determined as 40 nM.

`CCCC1(CCC)CC(=O)C(C(c2cccc(NS(=O)(=O)c3cn(C)cn3)c2)C2CC2)=C(O)O1` (stereo not given) had a Ki in assay [1] of 0.52 nM. In assay [2], this compound gave an IC90 of 3000 nM.

The compound `CCC(C1=C(O)OC(COCCOCCOC)(COCCOCCOC)CC1=O)c1cccc(NS(=O)(=O)c2cn(C)cn2)c1` (stereo not given) displayed a Ki in assay [1] of 28 nM. Also, the inhibition at 3 µM in assay [4] amounted to 0%.

In assay [1], `CCCC1(CCc2ccccc2)CC(=O)C(C(c2cccc(NS(=O)(=O)c3ccc(N)cn3)c2)C(C)(C)C)=C(O)O1` (stereo not given) had a Ki of 0.2 nM. Also, in assay [2], it took 740 nM to reach the 90% level (IC90).

`CCC(C1=C(O)OC(CC(C)C)(CC(C)C)CC1=O)c1cccc(NS(=O)(=O)c2cn(C)cn2)c1` (stereo not given) had a Ki in assay [1] of 3 nM. In addition, the IC90 in assay [2] was 7400 nM.

In assay [1], `CCC(C1=C(O)OC(C23C[C@H]4C[C@@H](C2)C[C@@H](C3)C4)CC1=O)c1cccc(NS(=O)(=O)c2cn(C)cn2)c1` (stereo not given in full) came in with a Ki of 23 nM.

Regarding `CCC(C1=C(O)OC(CCC2CC2)(CCC2CC2)CC1=O)c1cccc(NS(=O)(=O)c2cn(C)cn2)c1` (stereo not given), the Ki in assay [1] was determined as 1.7 nM. The compound also yielded an IC90 in assay [2] of 2900 nM.

For the compound `CCC[C@]1(CCc2ccccc2)CC(=O)C([C@H](CC)c2cccc(NS(=O)(=O)c3cn(C)cn3)c2)=C(O)O1`, the Ki in assay [1] turned out to be 0.12 nM. In assay [2], this compound showed an IC90 of 1000 nM.

For the compound `CCCC1(CCc2ccccc2)CC(=O)C(C(c2cccc(NS(=O)(=O)c3cn(C)cn3)c2)C2CC2)=C(O)O1` (stereo not given), in assay [1], the Ki came out at 0.71 nM. The IC90 in assay [2] amounted to 1000 nM.

`CCC[C@@]1(CCc2ccccc2)CC(=O)C([C@@H](CC)c2cccc(NS(=O)(=O)c3ccc(C(F)(F)F)cn3)c2)=C(O)O1` (stereo in doubt; 39d) came in with an IC50 in assay [3] of 410 nM.

Consider `CCCC1(CCC)CC(=O)C(C(CC)c2cccc(NS(=O)(=O)c3cn(C)cn3)c2)=C(O)O1` (stereo not given), for which the Ki in assay [1] stood at 1.8 nM. The IC90 in assay [2] was found to be 2000 nM.

On to `CCCC1(CCc2ccccc2)CC(=O)C(C(CC)c2cccc(NS(=O)(=O)c3ccccc3)c2)=C(O)O1` (stereo not given), for which the IC50 in assay [3] worked out at 1600 nM.

In the case of `CCCC1(CCc2ccccc2)CC(=O)C(Cc2cccc(NS(=O)(=O)c3cn(C)cn3)c2)=C(O)O1` (stereo not given), in assay [1], the Ki came to 13 nM. In addition, the inhibition at 1 µM in assay [5] worked out at 0%.

In assay [3], `CCC[C@@]1(CCc2ccccc2)CC(=O)C([C@@H](CC)c2cccc(NS(=O)(=O)c3ccc(C(F)(F)F)cn3)c2)=C(O)O1` (stereo in doubt; 39c) gave an IC50 of 1700 nM.

In assay [1], `CCCC1(CCc2ccccc2)CC(=O)C(C(CC)c2cccc(NS(=O)(=O)c3cccc4cccnc34)c2)=C(O)O1` (stereo not given) showed a Ki of 3.1 nM. The IC50 in assay [3] was 1000 nM.

`CCC[C@@]1(CCc2ccccc2)CC(O)=C([C@H](CC)c2cccc(NS(=O)(=O)c3ccc(C(F)(F)F)cn3)c2)C(=O)O1` [TIPRANAVIR]: the Ki in assay [1] amounted to 0.008 nM. Moreover, the half-inhibitory concentration (IC50) in assay [3] worked out at 30 nM.

Consider `CCCC1(CCc2ccccc2)CC(=O)C(C(CC)c2cccc(NS(=O)(=O)c3ccc(C#N)cc3)c2)=C(O)O1` (stereo not given), for which the Ki in assay [1] came out at 8.2 nM. The compound further displayed an IC50 in assay [3] of 1100 nM.

On to `CCCC1(CCc2ccc(F)cc2)CC(=O)C(C(CC)c2cccc(NS(=O)(=O)c3cn(C)cn3)c2)=C(O)O1` (stereo not given), for which the affinity in assay [1] corresponds to a Ki of 3 nM. Besides, the 90% effect level in assay [2] (IC90) was put at 2000 nM.

As for `CCCC1(CCc2ccccc2)CC(=O)C(C(CC)c2cccc(NS(=O)(=O)c3cn(C)cn3)c2)=C(O)O1` (stereo not given), the Ki in assay [1] turned out to be 1.2 nM.

With `CCCC1(CCC)CC(=O)C(C(c2cccc(NS(=O)(=O)c3cn(C)cn3)c2)C(C)(C)C)=C(O)O1` (stereo not given), the affinity in assay [1] corresponds to a Ki of 0.87 nM. The compound also gave an IC90 in assay [2] of 1000 nM.

Compound `CCCC1(CCc2ccccc2)CC(=O)C(C(c2cccc(NS(=O)(=O)c3ccc([N+](=O)[O-])cn3)c2)C(C)(C)C)=C(O)O1` (stereo not given) registered a Ki in assay [1] of 2.3 nM. The compound also gave an IC90 in assay [2] above 3000 nM.

For `CCC(C1=C(O)OC(CCc2ccccc2)(CCc2ccccc2)CC1=O)c1cccc(NS(=O)(=O)c2cn(C)cn2)c1` (stereo not given), the inhibition constant Ki in assay [1] stood at 1 nM. Further, in assay [2], the concentration for an effect of 90% (IC90) is 2000 nM.

`CCCC1(CCC)CC(=O)C(Cc2cccc(NS(=O)(=O)c3cn(C)cn3)c2)=C(O)O1` had an inhibition in assay [6] of 50%. In addition, at 3 µM the inhibition in assay [4] was 5%.

In turn, `CCC[C@@]1(CCc2ccccc2)CC(=O)C([C@@H](CC)c2cccc(NS(=O)(=O)c3ccc(C#N)cn3)c2)=C(O)O1` yielded a Ki in assay [1] of 0.1 nM. Further, the IC90 in assay [2] turned out to be 1000 nM.

`CCCC1(CCc2ccccc2)CC(=O)C(C(c2cccc(NS(=O)(=O)c3ccc(C#N)cc3)c2)C(C)(C)C)=C(O)O1` (stereo not given): the Ki in assay [1] came out at 12 nM. In assay [2], this compound gave an IC90 of 3000 nM.

`CCCC1(CCc2ccccc2)CC(=O)C(C(c2cccc(NS(=O)(=O)c3cn(C)cn3)c2)C(C)(C)C)=C(O)O1` (stereo not given): the Ki in assay [1] is 1.2 nM. The same compound registered an IC90 in assay [2] of 690 nM.

Regarding `CCCC1(CCc2ccccc2)CC(=O)C(C(CC)c2cccc(NS(=O)(=O)c3ccc(F)cc3)c2)=C(O)O1` (stereo not given), the affinity in assay [1] corresponds to a Ki of 6.1 nM. Half-maximal inhibition in assay [3] (IC50) required 1200 nM.

For the compound `CCCC1(CCc2ccccc2)CC(=O)C(C(CC)c2cccc(NS(=O)(=O)CCC)c2)=C(O)O1` (stereo not given), in assay [1], the Ki was above 1 nM.

`CCCC1(CCc2ccccc2)CC(=O)C(C(c2cccc(NS(=O)(=O)c3ccc(C#N)cn3)c2)C(C)(C)C)=C(O)O1` (stereo not given) came in with a Ki in assay [1] of 1.9 nM. In addition, in assay [2], the 90% effect concentration (IC90) was found to be 340 nM.

Take `CCC[C@]1(CCc2ccccc2)CC(=O)C(C(CC)c2cccc(NS(=O)(=O)c3ccc(C(F)(F)F)cn3)c2)=C(O)O1` (stereo not given in full): in assay [1], the Ki amounted to 0.018 nM. The same compound yielded an IC90 in assay [2] of 840 nM.

In assay [1], `CCC[C@@]1(CCc2ccccc2)CC(=O)C([C@@H](CC)c2cccc(NS(=O)(=O)c3cn(C)cn3)c2)=C(O)O1` yielded a Ki of 0.3 nM. Besides, in assay [2], the IC90 was above 1000 nM.

On to `CCCCCC1(CCCCC)CC(=O)C(C(CC)c2cccc(NS(=O)(=O)c3cn(C)cn3)c2)=C(O)O1` (stereo not given), for which the Ki in assay [1] came to 2.6 nM. Besides, the IC90 in assay [2] was below 3000 nM.

Compound `CCC[C@@]1(CCc2ccccc2)CC(=O)C([C@H](CC)c2cccc(NS(=O)(=O)c3cn(C)cn3)c2)=C(O)O1` registered a Ki in assay [1] of 0.06 nM. In addition, the IC90 in assay [2] is 560 nM.
